For five molecules, Hemolysis results are on record in patent US7338809B2, “Method for assaying whole blood” (Mitsubishi Kagaku Iatron, Inc., priority 2001, dated 2008).

The test system of data set [1] is whole blood. The data set is described as follows: Example 3: visual inspection of reaction system with whole blood treatment solutions (hemolysis, adhesion and aggregation of magnetic particles).
Procedure: Examination was conducted on the assumption that a detergent was added to the reaction system by adding the detergent to a whole blood treatment solution beforehand. The whole blood treatment solutions were prepared by dissolving various detergents in 0.1 M Tris buffer (pH 8.0) containing 1% BSA and 0.15 M NaCl, and it was examined which detergent was suitable for the measurement method of the present invention.
Blood was collected by using an EDTA blood collection tube. Then, HBsAg was added at 1 U/ml to each of the whole blood stored at 4° C. for 3 days and plasma obtained from the whole blood by centrifugation, and a recovery test for HBsAg was performed using the luminescence intensity obtained in the measurement using plasma, which was taken as 100%.
The assay was performed in the same manner as in Example 2. Whole blood and each of the various whole blood treatment solutions were mixed at a ratio of 9:1, plasma was mixed with purified water at a ratio of 9:1, and HBsAg was immediately measured. Further, whole blood was mixed with the aforementioned buffer (0.1 M Tris buffer (pH 8.0) containing 1% BSA and 0.15 M NaCl) without adding a detergent instead of a whole blood treatment solution, and HBsAg was measured in the same manner. Presence or absence of hemolysis in the reaction system, non-specific adhesion of magnetic particles on the reaction vessel (made of polypropylene) and non-specific aggregation of magnetic particles during reaction were confirmed by visual inspection.
The test system of data set [2] is whole blood. The data set is described as follows: Example 5: visual inspection of reaction system using fresh whole blood (hemolysis, adhesion, aggregation).
Procedure: In emergent tests, in particular, it is desirable to perform an assay immediately after blood collection, and erythrocytes in whole blood may be gradually hemolyzed during storage, possibly affecting the measurement. Therefore, examination was performed by using fresh blood immediately after blood collection.
Data set [3] concerns whole blood. The data set can be described thus: Example 4: visual inspection of reaction system, types and concentrations of detergents (hemolysis, adhesion, aggregation). The settings on record: heparin whole blood stored overnight at 4° C.
Procedure: Blood was collected by using a blood collection tube treated with heparin as an anticoagulant. […] Each detergent was added at a concentration of 0.01, 0.1, 0.5, 1 and 10% as a final concentration after the mixing with whole blood. Presence or absence of hemolysis in the reaction system, non-specific adhesion of magnetic particles on the reaction vessel (made of polypropylene) and non-specific aggregation of magnetic particles during reaction were confirmed by visual inspection for each detergent in each reaction system, and recovery ratio with respect to the added amount was determined.
Where [4] appears, read: detergent 1% upon mixing of whole blood, EDTA whole blood stored at 4° C. for 3 days, visual inspection.

Entries after “also recorded” stand apart in the source; their conditions may differ.

Turning to Polyoxyethylene stearyl ether [Brij 78], the Hemolysis entry in the data set on whole blood [1] (setting [4]) is “Present”.
With `O=S(=O)([O-])CCC[n+]1ccccc1`, the Hemolysis result with whole blood [1] and with whole blood [2] was “Absent” each time.
In the case of `C[C@H](CCC(=O)NCCC[N+](C)(C)CCCS(=O)(=O)[O-])[C@H]1CC[C@H]2[C@@H]3[C@H](O)C[C@@H]4C[C@H](O)CC[C@]4(C)[C@H]3C[C@H](O)[C@]12C` [CHAPS, 3-{(3-Cholamidopropyl)dimethylammonio}-1-propanesulfonate], the Hemolysis result with whole blood [1] (setting [4]) is “Present”.
Take “Polyoxyethylene octyl phenyl ether [Triton X-100]”: the Hemolysis entry is listed as “Absent” in the data set with whole blood [3] (detergent 0.01% upon mixing of whole blood); “Absent” with whole blood [3] (detergent 0.1% upon mixing of whole blood); “hemolysis was observed; also recorded: Present” in the data set on whole blood [3] (detergent 0.5% upon mixing of whole blood); “Present” in the data set with whole blood [3] (detergent 1% upon mixing of whole blood); “Present” in the data set with whole blood [3] (detergent 10% upon mixing of whole blood); “Present” in the data set with whole blood [1] (setting [4]).
As for Saponin, the Hemolysis result in the data set with whole blood [1] is listed as “Present”.
